Four compounds from ChEMBL document CHEMBL5715260, “Selectivity Literature for EUbOPEN Chemogenomic Library” (2024) can be followed below.

Experiment [1] deals with Steroidogenic factor 1 (Homo sapiens) (UniProt Q13285). As to the kind of experiment: Selectivity interaction (Reporter gene assay) EUB0001161a NR5A1. On the set-up: recommended concentration 10 uM.
Experiment [2] deals with T1, Alpha trans-inducing protein (Human alphaherpesvirus 1) (UniProt A0A5J6DW59). Description: Selectivity interaction (Reporter gene assay) EUB0001161a UL48. On the set-up: recommended concentration 10 uM.
The target in experiment [3] is Nuclear receptor ROR-alpha (Homo sapiens) (UniProt P35398). To be noted: screened at recom. conc., Selectivity number of off-targets 1.0, Selectivity number of targets 19.0, Source Knowledge inhouse.
Experiment [4] deals with T2, Nuclear receptor subfamily 2 group C member 1 (Homo sapiens) (UniProt P13056).
T2 sequence (whole entry): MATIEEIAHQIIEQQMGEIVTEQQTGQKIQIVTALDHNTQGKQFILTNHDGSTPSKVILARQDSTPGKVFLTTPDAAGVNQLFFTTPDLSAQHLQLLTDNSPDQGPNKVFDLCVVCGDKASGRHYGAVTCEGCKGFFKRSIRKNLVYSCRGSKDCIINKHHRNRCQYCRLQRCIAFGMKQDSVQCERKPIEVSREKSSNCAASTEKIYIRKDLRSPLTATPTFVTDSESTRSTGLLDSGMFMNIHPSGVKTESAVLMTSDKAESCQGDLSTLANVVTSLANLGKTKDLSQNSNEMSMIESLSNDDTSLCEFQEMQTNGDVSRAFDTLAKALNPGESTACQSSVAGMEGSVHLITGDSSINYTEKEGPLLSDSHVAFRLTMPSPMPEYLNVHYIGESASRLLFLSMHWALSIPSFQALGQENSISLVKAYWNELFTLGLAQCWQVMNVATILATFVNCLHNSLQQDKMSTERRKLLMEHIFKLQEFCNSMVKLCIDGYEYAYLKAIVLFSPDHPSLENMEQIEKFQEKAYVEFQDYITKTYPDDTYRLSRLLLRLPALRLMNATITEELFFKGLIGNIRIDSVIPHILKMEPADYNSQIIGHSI
To be noted: screened at recom. conc., Selectivity number of off-targets 1.0, Selectivity number of targets 5.0, Source Knowledge inhouse.

The target of experiment [5] is T3, Hepatocyte nuclear factor 4-alpha (Homo sapiens) (UniProt P41235).
T3 sequence (whole entry): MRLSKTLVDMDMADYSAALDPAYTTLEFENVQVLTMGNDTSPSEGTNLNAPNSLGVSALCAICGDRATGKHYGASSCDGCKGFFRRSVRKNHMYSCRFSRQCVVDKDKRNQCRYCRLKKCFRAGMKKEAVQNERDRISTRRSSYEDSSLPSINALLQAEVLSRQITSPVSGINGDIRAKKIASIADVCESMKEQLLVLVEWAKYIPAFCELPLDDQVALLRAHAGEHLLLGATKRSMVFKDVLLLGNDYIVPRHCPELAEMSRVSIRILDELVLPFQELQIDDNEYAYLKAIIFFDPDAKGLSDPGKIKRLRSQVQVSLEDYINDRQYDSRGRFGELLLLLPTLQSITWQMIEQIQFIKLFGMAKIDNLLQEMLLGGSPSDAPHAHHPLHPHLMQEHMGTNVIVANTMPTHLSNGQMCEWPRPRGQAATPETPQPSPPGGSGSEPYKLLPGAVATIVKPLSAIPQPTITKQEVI

In experiment [6] the target is Nuclear receptor subfamily 2 group E member 1 (Homo sapiens) (UniProt Q9Y466).
The target in experiment [7] is Nuclear receptor subfamily 4immunitygroup A member 1 (Homo sapiens) (UniProt P22736).
The target of experiment [8] is T3, Hepatocyte nuclear factor 4-alpha (Homo sapiens). Description: Selectivity interaction (Reporter gene assay) EUB0001169a HNF4A. On the set-up: recommended concentration 1 uM.
Experiment [9] concerns the target T2, Nuclear receptor subfamily 2 group C member 1 (Homo sapiens). As to the kind of experiment: Selectivity interaction (Reporter gene assay) EUB0001169a NR2C1. On the set-up: recommended concentration 1 uM.
Experiment [10] concerns the target Nuclear receptor subfamily 2 group E member 1 (Homo sapiens) (UniProt Q9Y466). As to the kind of experiment: Selectivity interaction (Reporter gene assay) EUB0001169a NR2E1. On the set-up: recommended concentration 1 uM.
Experiment [11] deals with Nuclear receptor subfamily 4immunitygroup A member 1 (Homo sapiens) (UniProt P22736). As to the kind of experiment: Selectivity interaction (Reporter gene assay) EUB0001169a NR4A1. On the set-up: recommended concentration 1 uM.
Experiment [12] addresses Steroidogenic factor 1 (Homo sapiens) (UniProt Q13285). As to the kind of experiment: Selectivity interaction (Reporter gene assay) EUB0001169a NR5A1. Details: recommended concentration 1 uM. To be noted: screened at recom. conc., Selectivity number of off-targets 1.0, Selectivity number of targets 5.0, Source Knowledge inhouse.
Experiment [13] has as its target T1, Alpha trans-inducing protein (Human alphaherpesvirus 1). Description: Selectivity interaction (Reporter gene assay) EUB0001169a UL48. On the set-up: recommended concentration 1 uM.
In experiment [14] the target is T4, Retinoic acid receptor RXR-alpha (Homo sapiens) (UniProt P19793).
T4 sequence (whole entry): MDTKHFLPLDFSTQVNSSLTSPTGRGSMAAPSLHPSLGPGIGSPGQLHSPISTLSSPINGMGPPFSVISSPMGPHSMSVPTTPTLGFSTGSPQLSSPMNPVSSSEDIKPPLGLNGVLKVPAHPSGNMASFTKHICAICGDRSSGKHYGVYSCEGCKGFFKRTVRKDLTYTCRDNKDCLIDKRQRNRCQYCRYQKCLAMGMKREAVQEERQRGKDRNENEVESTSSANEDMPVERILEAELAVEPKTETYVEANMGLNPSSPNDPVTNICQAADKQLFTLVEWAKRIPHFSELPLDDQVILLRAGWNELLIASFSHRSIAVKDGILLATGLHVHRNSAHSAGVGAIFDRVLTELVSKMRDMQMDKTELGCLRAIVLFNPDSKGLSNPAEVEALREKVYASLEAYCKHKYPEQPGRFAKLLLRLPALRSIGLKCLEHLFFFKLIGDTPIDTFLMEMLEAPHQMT
As to the kind of experiment: Selectivity interaction (Reporter gene assay) EUB0001169a RXRA. On the set-up: recommended concentration 1 uM.

For experiment [15], the target named is T3, Hepatocyte nuclear factor 4-alpha (Homo sapiens). Description: Selectivity interaction (Reporter gene assay) EUB0001163a HNF4A. On the set-up: recommended concentration 10 uM.
Experiment [16] concerns the target T2, Nuclear receptor subfamily 2 group C member 1 (Homo sapiens). As to the kind of experiment: Selectivity interaction (Reporter gene assay) EUB0001163a NR2C1. On the set-up: recommended concentration 10 uM.
Experiment [17] has as its target Nuclear receptor subfamily 2 group E member 1 (Homo sapiens) (UniProt Q9Y466). Description: Selectivity interaction (Reporter gene assay) EUB0001163a NR2E1. Details: recommended concentration 10 uM.
The target in experiment [18] is Nuclear receptor subfamily 4immunitygroup A member 1 (Homo sapiens) (UniProt P22736). Description: Selectivity interaction (Reporter gene assay) EUB0001163a NR4A1. On the set-up: recommended concentration 10 uM.
The target of experiment [19] is Steroidogenic factor 1 (Homo sapiens) (UniProt Q13285). As to the kind of experiment: Selectivity interaction (Reporter gene assay) EUB0001163a NR5A1. On the set-up: recommended concentration 10 uM.
For experiment [20], the target named is T1, Alpha trans-inducing protein (Human alphaherpesvirus 1). Description: Selectivity interaction (Reporter gene assay) EUB0001163a UL48. Details: recommended concentration 10 uM.
In experiment [21] the target is T4, Retinoic acid receptor RXR-alpha (Homo sapiens). Description: Selectivity interaction (Reporter gene assay) EUB0001163a RXRA. On the set-up: recommended concentration 10 uM. To be noted: reference bexarotene 1 uM, Selectivity number of off-targets 0.0, Selectivity number of targets 1.0, Source Knowledge inhouse.
Experiment [22] addresses T1, Alpha trans-inducing protein (Human alphaherpesvirus 1). Description: Selectivity interaction (Reporter gene assay) EUB0001172a UL48. On the set-up: recommended concentration 1 uM.

T1 sequence (A0A5J6DW59 as listed by the source): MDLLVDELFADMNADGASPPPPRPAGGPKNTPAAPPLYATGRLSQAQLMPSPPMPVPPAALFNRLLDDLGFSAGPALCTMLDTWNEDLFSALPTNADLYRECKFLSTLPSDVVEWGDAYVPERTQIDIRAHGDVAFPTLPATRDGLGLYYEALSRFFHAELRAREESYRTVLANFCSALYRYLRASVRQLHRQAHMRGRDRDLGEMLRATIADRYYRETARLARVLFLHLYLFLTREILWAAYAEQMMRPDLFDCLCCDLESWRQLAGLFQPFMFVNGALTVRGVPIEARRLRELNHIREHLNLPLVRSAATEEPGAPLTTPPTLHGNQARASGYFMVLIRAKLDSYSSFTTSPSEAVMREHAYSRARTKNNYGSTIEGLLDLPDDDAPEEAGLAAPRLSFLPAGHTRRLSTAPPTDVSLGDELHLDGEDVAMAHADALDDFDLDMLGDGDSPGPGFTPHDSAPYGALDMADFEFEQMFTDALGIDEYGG
Sequence of Nuclear receptor subfamily 2 group E member 1 (Homo sapiens) (Q9Y466 whole entry): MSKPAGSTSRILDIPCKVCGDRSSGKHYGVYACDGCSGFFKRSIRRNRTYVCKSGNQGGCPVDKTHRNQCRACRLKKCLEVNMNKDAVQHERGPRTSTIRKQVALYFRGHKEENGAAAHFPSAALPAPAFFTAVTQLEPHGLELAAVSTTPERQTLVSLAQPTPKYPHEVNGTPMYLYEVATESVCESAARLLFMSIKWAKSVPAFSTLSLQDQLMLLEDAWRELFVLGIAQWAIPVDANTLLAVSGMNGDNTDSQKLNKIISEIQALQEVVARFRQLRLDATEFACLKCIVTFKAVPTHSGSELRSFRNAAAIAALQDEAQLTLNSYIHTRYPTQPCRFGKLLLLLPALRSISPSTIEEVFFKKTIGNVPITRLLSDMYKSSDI
Sequence of Steroidogenic factor 1 (Homo sapiens) (Q13285 whole entry): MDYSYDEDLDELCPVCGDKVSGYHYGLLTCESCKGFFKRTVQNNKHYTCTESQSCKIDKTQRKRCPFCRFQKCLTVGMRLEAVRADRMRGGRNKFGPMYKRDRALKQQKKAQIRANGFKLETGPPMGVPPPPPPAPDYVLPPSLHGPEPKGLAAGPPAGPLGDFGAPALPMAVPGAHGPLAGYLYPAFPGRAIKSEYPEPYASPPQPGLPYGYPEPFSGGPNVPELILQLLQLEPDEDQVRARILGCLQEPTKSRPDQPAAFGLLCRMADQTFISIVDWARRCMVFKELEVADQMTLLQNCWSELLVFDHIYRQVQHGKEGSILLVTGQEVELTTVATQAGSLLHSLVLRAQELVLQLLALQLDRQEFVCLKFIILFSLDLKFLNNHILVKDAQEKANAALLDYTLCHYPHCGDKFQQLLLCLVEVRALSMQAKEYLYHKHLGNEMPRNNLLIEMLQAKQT
Sequence of Nuclear receptor subfamily 4immunitygroup A member 1 (Homo sapiens) (P22736 whole entry): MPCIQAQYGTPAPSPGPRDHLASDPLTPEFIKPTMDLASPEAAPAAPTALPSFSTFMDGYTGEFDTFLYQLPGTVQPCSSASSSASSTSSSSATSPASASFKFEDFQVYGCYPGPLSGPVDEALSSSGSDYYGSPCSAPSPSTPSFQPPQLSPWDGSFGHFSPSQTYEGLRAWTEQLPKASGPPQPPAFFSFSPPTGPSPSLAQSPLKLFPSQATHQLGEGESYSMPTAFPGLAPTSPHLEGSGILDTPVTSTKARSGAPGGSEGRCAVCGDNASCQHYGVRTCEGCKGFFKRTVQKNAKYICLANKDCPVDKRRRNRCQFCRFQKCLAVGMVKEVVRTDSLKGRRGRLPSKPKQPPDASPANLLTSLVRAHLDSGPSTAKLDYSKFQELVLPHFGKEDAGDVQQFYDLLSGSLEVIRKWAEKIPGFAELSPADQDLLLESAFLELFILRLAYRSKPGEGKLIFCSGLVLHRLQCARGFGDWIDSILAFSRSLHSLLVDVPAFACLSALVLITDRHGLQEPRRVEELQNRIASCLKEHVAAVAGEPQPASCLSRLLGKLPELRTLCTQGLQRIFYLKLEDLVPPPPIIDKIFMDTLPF
Sequence of Nuclear receptor ROR-alpha (Homo sapiens) (P35398 whole entry): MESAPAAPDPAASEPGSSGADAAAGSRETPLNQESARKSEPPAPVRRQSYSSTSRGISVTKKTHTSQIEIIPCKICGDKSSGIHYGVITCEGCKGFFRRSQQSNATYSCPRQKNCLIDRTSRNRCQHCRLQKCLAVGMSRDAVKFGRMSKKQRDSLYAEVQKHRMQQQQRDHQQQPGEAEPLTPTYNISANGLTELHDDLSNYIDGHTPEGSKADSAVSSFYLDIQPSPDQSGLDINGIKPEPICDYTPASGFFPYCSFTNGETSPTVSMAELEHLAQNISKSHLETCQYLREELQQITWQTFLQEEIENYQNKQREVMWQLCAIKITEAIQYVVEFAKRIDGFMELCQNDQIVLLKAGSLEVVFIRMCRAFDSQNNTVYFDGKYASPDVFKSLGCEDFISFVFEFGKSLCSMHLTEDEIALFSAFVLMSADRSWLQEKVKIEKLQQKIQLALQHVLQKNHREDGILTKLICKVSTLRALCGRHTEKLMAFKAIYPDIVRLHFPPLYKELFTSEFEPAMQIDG

For `COc1cc(O)c(C(CC(=O)N2C[C@H](C)C[C@H](C)C2)c2ccc3c(c2)OCO3)c(OC)c1` (some centres not stated), the Remaining activity in experiment [1] turned out to be 0.942; in [3] it was 0.851; in experiment [4] it was 0.425; in [5] it was 0.972; in [6], 0.509; in experiment [7], 0.899. Besides, the P-value in experiment [2] was found to be 0.000227.
`O=C(O)c1cc(F)c2nc(N3[C@@H]4CC[C@H]3C[C@@H](OCc3c(-c5ccccc5OC(F)(F)F)noc3C3CC3)C4)sc2c1`: the Remaining activity in experiment [8] was found to be 0.655; in experiment [10], 0.961; in [11] it was 0.696; in experiment [12], 0.47. For the same compound, in experiment [9], the Fold activation is 1.28. Besides, the P-value in experiment [13] is 0.00151. Moreover, the Relative activation in experiment [14] was 0.815%.
As for `CCOC(=O)Nc1ccc2c(c1)N(C(=O)CN(CC)CC)c1ccccc1CC2`, the Fold activation in experiment [15] was 1.08; in experiment [16], 1.37; in experiment [19] it was 1.16. In addition, the Remaining activity came out at 1.38 in [17] and 1.21 in experiment [18]. In [20], this compound displayed a P-value of 0.011. Moreover, the Relative activation in experiment [21] amounted to 0.623%.
In the case of `CC(C)(C[C@H]1CN(S(=O)(=O)c2cccc(C(F)(F)F)c2)c2cc(-c3cc(F)cc(OC(F)F)c3)ccc2O1)C(=O)O`, the P-value in experiment [22] is 4.9e-12.
